Measured values taken from patent US20240018118A1, “TRICYCLIC COMPOUNDS TO DEGRADE NEOSUBSTRATES FOR MEDICAL THERAPY” (C 4 Therapeutics, Inc., priority 2020, published 2024).
Like-named read-outs stand apart in the source and are kept apart here.

Columns and labels:
IKZF2 = IKZF2 (Homo sapiens, UniProt Q96SW2+Q9UKS7); settings: cited from earlier work
IKZF4 = IKZF4 (Homo sapiens, UniProt Q96SW2+Q9H2S9); settings: cited from earlier work
IKZF1 = target: T1, IKZF1 (Homo sapiens, UniProt Q13422+Q96SW2); test: HiBiT degradation assay, NCIH929.11 (HiBiT-IKZF1) cells; assay type: cell-based; settings: for DC50: NCHI929.11 cells, 6 hours; for Emax: read-out: HiBiT-Degradation NCHI929.11 IKZF1 6 hours Emax, NCHI929.11 cells
T1 construct: endogenously expressing IKZF1 with HiBiT fusion tag via CRISPR; endogenous in cells; host or cells: NCIH929.11 (CRISPR knock-in)
Method: RPMI no-phenol red medium and fetal bovine serum (FBS) were purchased from Gibco (Grand Island, NY, USA). Nano-Glo® HiBiT Lytic Assay System was purchased from Promega (Madison, WI, USA). NCIH929.11 (HiBiT-IKZF1) cell line was generated in house, endogenously expressing IKZF1 with HiBiT fusion tag via CRISPR. Cell culture flasks and 384-well microplates were acquired from VWR (Radnor, PA, USA).
IKZF 1 degradation was determined based on quantification of luminescent signal using Nano-Glo® HiBiT Lytic Assay kit. Test compounds were added to the 384-well plate from a top concentration of 10 μM with 11 points, half-log titration in duplicates. NCIH929.11 cells expressing HiBiT-tagged TKZF1 were added into 384-well plates in RPMI medium containing 10% FBS and 0.05 mM 2-mercaptoethanol at a cell density of 15000 cells per well. The plates were kept at 37° C. with […] for 6 hours. Cells treated in the absence of the test compound were the negative control and wells containing media only were the positive control. After 6-hour incubation, Nano-Glo® HiBiT Lytic Assay reagents were added to the designated wells. Luminescence was acquired on EnVision™ Multilabel Reader (PerkinElmer, Santa Clara, CA, USA).

SALL4 = SALL4 (Homo sapiens, UniProt Q96SW2+Q9UJQ4); test: HiBiT degradation assay, KELLY.2 (SALL4-HiBiT) cells; assay type: cell-based; settings: for DC50: KELLY.2 cells, 6 hours; for Emax: read-out: HiBiT-Degradation KELLY.2 SALL4 6 hours Emax, KELLY.2 cells
Method: RPMI 1640 Medium without phenol red, fetal bovine serum (FBS), and Sodium Pyruvate (100 mM) were purchased from Gibco (Grand Island, NY, USA). Nano-Glo® HiBiT Lytic Assay System was purchased from Promega (Madison, WI, USA). […] Cell culture flasks and 384-well microplates were acquired from VWR (Radnor, PA, USA).
(§1) SALL4 degradation was determined based on quantification of luminescent signal using Nano-Glo® HiBiT Lytic Assay kit. Test compounds were added to the 384-well plate from a top concentration of 10 μM with 11 points, half log titration in duplicates. KELLY.2 cells were added into 384-well plates at a cell density of 6000 cells per well. The plates were kept at 37° C. with 5% CO2 for 6 hours. The cells treated in the absence of the test compound were the negative control and the cells without Nano-Glo® HiBiT Lytic reagent were the positive control. After 6-hour incubation, Nano-Glo® HiBiT Lytic Assay reagents were added to the cells. Luminescence was acquired on EnVision™ Multilabel Reader (PerkinElmer, Santa Clara, CA, USA).

GSPT1 = GSPT1 (Homo sapiens, UniProt P15170+Q96SW2); test: HiBiT degradation assay, 293T.114 cells, GSPT1; assay type: cell-based
Method: as §1, with “GSPT1” for “SALL4”, “5” for “11”, “3-fold” for “half log”, “quadruplicates. 293T.114” for “duplicates. KELLY.2”, “The plates were kept at 37° C. with 5% CO2 for 6 hours.” left out, “After 6-hour incubation, Nano-Glo® HiBiT Lytic Assay reagents were added to the cells.” left out

CRBN = target: T2, CRBN (Homo sapiens, UniProt Q96SW2); test: NanoBRET CRBN binding, 293T.116 cells; settings: 2 hours
T2 construct: expressed in transfected cells; host or cells: 293T (line named 293T.116)

[1] = target: T3, CRBN-NanoLuc® fusion protein in 293T cells (Homo sapiens, UniProt Q96SW2); test: NanoBRET assay: competitive displacement of pomalidomide-NanoBRET tracer from CRBN-NanoLuc in 293T.116 cells; assay type: binding; settings: 2 h at 37° C., tracer at 300 nM
T3 construct: expressed in transfected cells; host or cells: 293T (line named 293T.116)
Method: The cell permeability and binding affinity of test compounds to cellular cereblon (CRBN) was determined by competitive displacement of a pomalidomide-NanoBRET™ tracer reversibly bound to a CRBN-NanoLuc® fusion protein in 293T cells. 293T cells were modified by lentiviral transfection to express a fusion of CRBN and NanoLuc® luciferase. […] Affinity of test compound was determined by displacement of NanoBRET-pomalidomide tracer signal following the addition of NanoBRET reagents (Promega) per manufacturer's instructions.
40 μL 293T.116 cells suspended in OptiMEM media at 2×10^5 cells/mL (8000 cells/well) were dispensed using a Multidrop Combi Reagent Dispenser (Thermo Fisher) to each well of 384-well white TC-treated microplates. 10 mM DMSO test compound stock solution was serially diluted (half log) in DMSO to generate 11-point dose series (10000, 3160, 1000, 316, 100, 31.6, 10, 3.2, 1, 0.3, 0.1 μM) in an acoustic ready 384-well low dead volume microplate (Labcyte). […] 20 μL NanoBRET TE Assay reagents were added to each well and NanoBRET signal was acquired on an EnVision Multilabel Reader (PerkinElmer). Donor emission from CRBN-NanoLuc was detected at 450 nm with a NanoLuc 460/50 filter and Acceptor fluorescence of NanoBRET-pomalidomide tracer (618 nm) was detected with a 600 nm long pass NanoBRET filter. Ratio of Acceptor signal/Donor signal was calculated for each well. […]

[2] = 293T.114 cells, 24 hours, read-out: HiBiT-Degradation 293T.114 GSPT1 24 hours DC50
[3] = 293T.114 cells, 24 hours, read-out: HiBiT-Degradation 293T.114 GSPT1 24 hours Emax
[4] = 293T.114 cells, 48 hours, read-out: HiBiT-Degradation 293T.114 GSPT1 48 hours DC50
[5] = 293T.114 cells, 48 hours, read-out: HiBiT-Degradation 293T.114 GSPT1 48 hours Emax
[6] = 293T.114 cells, 6 hours, read-out: HiBiT-Degradation 293T.114 GSPT1 6 hours DC50
[7] = read-out: HiBiT-Degradation 293T.114 GSPT1 6 hours Emax, 293T.114 cells, 6 hours
[8] = read-out: GSPT1 Emax @ 10 μM 24 Hours, 24 hours

DC50 (IKZF1) [nM]	Emax (IKZF1) [%]	DC50 (SALL4) [nM]	Emax (SALL4) [%]	DC50 (GSPT1; [2]) [nM]	Emax (GSPT1; [3]) [%]	DC50 (GSPT1; [4]) [nM]	Emax (GSPT1; [5]) [%]	IC50 (CRBN) [nM]	DC50 (GSPT1; [6]) [nM]	Emax (GSPT1; [7]) [%]	Emax (GSPT1; [8]) [%]	IC50 [1] [nM]	SMILES	degradation of IKZF2 (IKZF2)	degradation of IKZF4 (IKZF4)
													Cc1nc2cccc(N)c2c(=O)n1C1CCC(=O)NC1=O (centres unmarked) [CC-122]	not degraded	not degraded
1000 to 10000	< 45	> 10000	60 to 95	> 10000	60 to 95	> 10000	60 to 95	< 100					CC(C)OC1CCN(Cc2cc3c4c(cccc4c2)N(C2CCC(=O)NC2=O)C3=O)CC1 (centres unmarked) [Compound 161]		
< 100	< 45	< 100	< 45	< 100	< 45			< 100	< 100	< 45			O=C1CCC(N2C(=O)c3ccc(CN4CC(Oc5ccccc5)C4)c4cccc2c34)C(=O)N1 (centres unmarked) [Compound 158]		
100 to 1000	< 45	100 to 1000	< 45					< 100	> 10000	45 to 60	< 45		CCOC(=O)c1ccc(Cc2ccc3c4c(cccc24)N(C2CCC(=O)NC2=O)C3=O)cc1 (centres unmarked) [Compound 61, ethyl 4-((1-(2,6-dioxopiperidin-3-yl)-2-oxo-1,2-dihydrobenzo[cd]indol-5-yl)methyl)benzoate]		
												60	N#Cc1ccc2c3c(cccc13)N(C1CCC(=O)NC1=O)C2=O (centres unmarked) [Compound 225]		
> 10000	60 to 95	> 10000	60 to 95					< 100	> 10000	60 to 95	< 45		CCOC(=O)c1cccc(Cc2ccc3c4c(cccc24)N(C2CCC(=O)NC2=O)C3=O)c1 (centres unmarked) [Compound 62, ethyl 3-((1-(2,6-dioxopiperidin-3-yl)-2-oxo-1,2-dihydrobenzo[cd]indol-5-yl)methyl)benzoate]		
> 10000	45 to 60	< 100	< 45	> 10000	60 to 95	> 10000	60 to 95	< 100					O=C1CCC(N2C(=O)c3ccc(CNCc4cc(F)ccc4F)c4cccc2c34)C(=O)N1 (centres unmarked) [Compound 155, 3-[5-[[(2,5-difluorophenyl)methylamino]methyl]-2-oxo-benzo[cd]indol-1-yl]piperidine-2,6-dione]		
													O=C1CC[C@H](N2Cc3c(OCc4ccc(CN5CCOCC5)cc4)cccc3C2=O)C(=O)N1 [CC-220]	efficiently degraded	efficiently degraded
100 to 1000	< 45	< 100	< 45	> 10000	60 to 95	> 10000	60 to 95	< 100					O=C1CCC(N2C(=O)c3ccc(CNCCc4ccc(Cl)cc4)c4cccc2c34)C(=O)N1 (centres unmarked) [Compound 157]		
> 10000	60 to 95	> 10000	60 to 95					< 100	> 10000	60 to 95			CCOC(=O)c1cc(Cc2ccc3c4c(cccc24)N(C2CCC(=O)NC2=O)C3=O)ccc1F (centres unmarked) [Compound 69, ethyl 5-[[1-(2,6-dioxo-3-piperidyl)-2-oxo-benzo[cd]indol-5-yl]methyl]-2-fluoro-benzoate]		
< 100	< 45	< 100	< 45					< 100	> 10000	> 95			CC1(C(=O)N2CCC(n3cc(Cc4ccc5c6c(cccc46)C(=O)N5[C@H]4CCC(=O)NC4=O)cn3)CC2)CCC1 [Compound 206, (3S)-3-[6-[[1-[1-(1-methylcyclobutanecarbonyl)-4-piperidyl]pyrazol-4-yl]methyl]-2-oxo-benzo[cd]indol-1-yl]piperidine-2,6-dione]		
> 10000	60 to 95	< 100	< 45					< 100	> 10000	60 to 95		40	O=C1CCC(N2C(=O)c3ccc(Br)c4cccc2c34)C(=O)N1 (centres unmarked) [Compound 224]		
													Nc1cccc2c1C(=O)N(C1CCC(=O)NC1=O)C2=O (centres unmarked) [pomalidomide]	not degraded	not degraded
> 10000	45 to 60	< 100	< 45					< 100	> 10000	45 to 60	< 45		O=C1CCC(N2C(=O)c3ccc(CNC(=O)C(F)(F)c4ccc(Cl)cc4)c4cccc2c34)C(=O)N1 (centres unmarked) [Compound 64, 2-(4-chlorophenyl)-N-[[1-(2,6-dioxo-3-piperidyl)-2-oxo-benzo[cd]indol-5-yl]methyl]-2,2-difluoro-acetamide]		
> 10000	60 to 95	100 to 1000	45 to 60	> 10000	60 to 95	> 10000	60 to 95	< 100					N#Cc1ccc(Cc2ccc3c4c(cccc24)N(C2CCC(=O)NC2=O)C3=O)cc1 (centres unmarked) [Compound 66, 4-[[1-(2,6-dioxo-3-piperidyl)-2-oxo-benzo[cd]indol-5-yl]methyl]benzonitrile]		
